Experimental data taken from US20250282802A1, “P[…] AND METHODS” (priority 2020, published 2025).
Like-named read-outs stand apart in the source and are kept apart here.

What was measured:
[1] = tested on: Aspergillus fumigatus 1163; test: Fungicidal bioassay (MIC), Aspergillus fumigatus; format: cell-based; details: for MIC: Aspergillus fumigatus, 1163, 48 hrs growth, CLSI
Experimental: Bacteria, plasmids and growth conditions. Bacterial strains, plasmids and primers used in this study are described in Table 3 and 4. General chemical and molecular biology reagents were purchased from Sigma-Aldrich or New England Biolabs. Phosphinothricin (glufosinate) was purchased from GoldBio (CAS #77182-82-2). Standard bacterial growth media were prepared as described (Current Protocols in Molecular Biology 2019, 125:e81, e82, e83). E. coli strains were typically grown at 37° C.; P. ananatis strains were typically grown at 30° C. Phosphonate induction media (PIM) was prepared as follows: 8.37 g/L MOPS, 0.72 g/L Tricine, 0.58 g/L NaCl, 0.51 g/L NH4Cl, 1.6 g/L KOH, 0.1 g/L MgCl2·6H2O, 0.05 g/L K2SO4, 0.2 g/L K2HIPO4 were dissolved H2O and steam sterilized for 20 min at 121° C. After cooling, 1× sterile trace element solution was added (1000× stock: 1.5 g/L nitrilotriacetic acid trisodium salt, 0.8 g/L Fe(NH4)2(SO4)2·7H2O, 0.2 g/L Na2SeO3, 0.1 g/L CoCl2·6H2O, 0.1 g/L MnSO4·H2O, 0.1 g/L Na2MoO4·2H2O, 0.1 g/L Na2WO4·2H2O, 0.1 g/L ZnSO4·7H2O, 0.1 g/L NiCl2·6H2O, 0.01 g/L H3BO3, 0.01 g/L CuSO4·5H2O) followed by addition of 1% (v/v) sterile glycerol and 50 μg/mL sterile kanamycin. For culturing of Candida and Saccharomyces strains, Rosewell Park Memorial Institute 1640 medium (RPMI; Sigma-Aldrich R6504) was used for liquid culturing and Sabouraud Dextrose Agar (SDA; Difco™ 210950) for solid plating unless otherwise specified. For Aspergillus strains, Rosewell Park Memorial Institute 1640 medium (RPMI) was used for liquid culturing and Potato Dextrose Agar (PDA; Difco™ 213400) was used for solid plating unless otherwise specified. YMM medium (6.7 g/L yeast nitrogen base without amino acids [BD Difco™ 291940], 20 g/L glucose, 1× trace element solution) was used as minimal media for fungal strains.
Fungicidal bioassays. […] Minimum Inhibitory Concentration (MIC) was determined visually by finding the concentration of compound at which there was no visual difference between that concentration and the uninoculated media control.

[2] = tested on: HCT-116 (human colon cancer); test: Cell culture cytotoxicity screening (Alamar Blue), HCT-116; format: cell-based; details: HCT-116, Alamar Blue, 72 hours
Experimental: FIG. 8. Cytotoxicity of pantaphos across various cancer cell lines. Assays were conducted as described (mBio. 2021 Feb. 2; 12(1):e03402-20), using the Alamar Blue method with 72-hour treatment using Raptinal ([…]) as Dead cell control; n=3. Cell seeding densities: CT26 (colon carcinoma) 2000 c/w; HOS (osteosarcoma) 2500 c/w; ES-2 (ovarian carcinoma), HCT-116 (colorectal carcinoma), A-549 (lung carcinoma), A-172 (glioblastoma), D54 (glioblastoma), U87 (glioblastoma), T98G (glioblastoma), SK-ML-28 (melanoma), MCF-7 (breast cancer), AM38 (glioblastoma) and MDA-MB-231 (breast cancer) 3000 c/w; U118MG (malignant glioma) 4000 c/w; HepG2 (liver cancer) 8000 c/w. c/w=cells per well. […]
Cell culture cytotoxicity screening. The compounds were evaluated for their ability to kill cancer cell lines in culture, using HOS (osteosarcoma); ES-2 (ovarian cancer); HCT 116 (colon cancer); A549 (lung carcinoma); and A172 (glioma) cells. Human skin fibroblast cells (HFF-1) were also assessed. […] 72 hours post-treatment, cell viability was assessed using the Alamar Blue method (http://www.bio-rad-antibodies.com/measuring-cytotoxicity-proliferation-spectrophotometry-fluorescence-alamarBlue.html). […] Conversion of Alamar Blue was measured with a plate reader (SpectraMax M3; Molecular Devices) by fluorescence (excitation wavelength: 555 nm; emission wavelength: 585 nm; cutoff 570 nm; autogain). […]

O=C(O)/C=C(\C(=O)O)C(O)P(=O)(O)O (centres unmarked) [pantaphos, 2-(hydroxy(phosphono)methyl)maleate]
MIC ([1]; M9 minimal medium, read-out: MIC, Minimal medium): > 125 µM
MIC ([1]; RPMI 1640 medium, read-out: MIC, Rich medium): > 125 µM
effect on the growth of fungi, in words ([1]; rich or minimal media): no effect on the growth
IC50 [2]: 10.4 ± 2 µM
Emax ([2]; read-out: Emax = percentage cell death (converted)): 59%
